What was measured:
[1] = tested on: Primary non-IBD patient-derived colonic fibroblasts; experiment: TGF-β1-induced collagen expression in primary non-IBD patient-derived colonic fibroblasts; type: cell-based, human; conditions: TGF-β1 10 ng/ml; elafin 1 μg/ml 24 hours
Protocol: Cleveland Clinic IRB directives (IRB #17-1167). Primary non-IBD patient-derived colonic fibroblasts (H6231) were purchased from Cell Biologics. All primary colonic fibroblasts were cultured in fibroblast medium (M2267, Cell Biologics). Human colonic CCD-18Co fibroblasts (ATCC) were cultured in minimal essential medium Eagle's medium (MEM) containing 10% fetal bovine serum and 1% penicillin-streptomycin 6, 20. All fibroblasts were grown to 80% confluence and then switched to serum-free media overnight for experiments.
For activation of protease-activated receptors (PARs), fibroblasts were pretreated with 0.8% DMSO, 10 μM PAR1 agonist TRAP-6 (HY-P0078, MCE), 10 μM PAR2 agonist SLIGKV-NH2 (Protease-Activated Receptor-2, amide, HY-P0283, MCE), or 0.4 μg/ml PAR2-activating protease recombinant cathepsin S (1183-CY-010, R&D Systems) for 30 minutes. For miR205-5p activation, fibroblasts were transfected with (30 picomoles/well) either control (YM00479902) or miR205-5p miRCURY LNA mimic (YM00472340) from Qiagen via Lipofectamine 3000 transfection reagent (L3000001, ThermoFisher) in Opti-MEM (#31985062, ThermoFisher) overnight. For miR205-5p inhibition, fibroblasts were pretreated with 50nM either control (Y100199006) or miR205-5p power inhibitors (Y104101508-DDA) from Qiagen overnight. […]

[2] = tested on: mouse RAW264.7 macrophages; experiment: TNFα secretion in RAW264.7 macrophages; type: cell-based; conditions: elafin 10-1000 ng/ml, 6 h
Protocol: Mouse RAW264.7 macrophages (#TIB-71, ATCC) were cultured in Dulbecco's modified Eagle's medium (DMEM) (#11965-084, ThermoFisher) with 10% fetal bovine serum (FBS) (#10437-028, Life Technologies) and 1% penicillin/streptomycin/glutamine (P/S/G) (#10378-016, Life Technologies) mixture. The macrophages were serum-starved overnight, followed by exposure to fatty acid-free bovine serum albumin (BSA) (A7030, Sigma), sodium palmitate (P9767, Sigma), or lipopolysaccharide (LPS) (L5418, Sigma) for 2 h, and then the addition of elafin (10-1000 ng/ml) for additional 6 h. The cell-conditioned media were used for mouse TNFα ELISA (DY410, R&D Systems).

## Elafin: small (6 kDa) human elastase-specific protease inhibitor and antimicrobial peptide; active form SEQ ID NO: 2 (AQEPVKGPVSTKPGSCPIILIRCAMLNPPNRCLKDTDCPGIKKCCEGSCGMACFVPQ; listed as Homo sapiens)
[1]
  TGF-β1 induced COL1A2 and ProCOL1A1 protein expression: reversed
[2]
  LPS- and palmitate-induced TNFα secretion: did not affect
